Laboratory results from US11737989B2, “Clevidipine nanoparticles and pharmaceutical compositions thereof” (CHIESI Farmaceutici S.p.A., priority 2014, dated 2023).

Assays:
[1] = cited from earlier work
[2] = in vivo; cited from earlier work
[3] = Oxidative degradation of clevidipine: influence of oxygen content in headspace (H324/78); type: physicochemical; conditions: exposed to ambient light
Description: Nanoparticle formulations with clevidipine (formulation numbers 31, 40 and 42) as well as clevidipine solutions were purged either with nitrogen or compressed air, and exposed to ambient light to determine the effect of head space oxygen on the formation of oxidative degradation product, H324/78.

H324/78 (% Area) ([3]; purged with compressed air (Air)): 3.06 % Area
H324/78 (% Area) ([3]; purged with nitrogen (N2)): 2.54 % Area
SMILES: CCCC(=O)OCOC(=O)C1=C(C)NC(C)=C(C(=O)OC)C1c1cccc(Cl)c1Cl (centres unmarked) [Clevidipine, clevidipine]
Solubility in lipids [1]: moderate
Solubility in water [1]: negligible
Initial phase half-life [2]: about one minute
